The test system of data set [1] is PaCa-2 pancreatic cancer cells. Nature of the data set: cells. The settings on record: Homo sapiens.
A further data set concerns SK-MEL-28. The settings on record: human, 4 h.
In a further data set the test system is E2F-1. Nature of the data set: E2F-1 protein expression by Western blot in Paca-2 cells. In kind it is cell-based, human. The settings on record: 0.5 hours exposure. Here is the method:
Cells were harvested and whole cell lysates were prepared and resolved by SDS/PAGE, then Western blots were prepared using E2F-1 antibody obtained from Santa Cruz Biotechnology (Santa Cruz, Calif.) and an enhanced chemiluminescence assay system (Amersham Pharmacia).
(In general: A western blot detects proteins with antibodies after separation by electrophoresis.)

For data set [2] the following is noted: dog, in vivo.
The nature of data set [3]: Study 2B: dose-range-finding toxicity study, single intravenous administration in dogs. The settings on record: two dogs.
The next data set has as its system MCF-7. Nature of the data set: cells. To be noted: Homo sapiens, MCF7, read-out: LC50 (Replicate Results), MCF-7, 4 hour exposure, colonies after 14-21 days.
Another data set relates to A549 lung cancer cells. Nature of the data set: cells. The settings on record: Homo sapiens, A549, read-out: LC50, A549 Clone B surviving >LC99.
The next data set has as its system CAOV-3. To be noted: human, 4 h.
The subject of data set [4] is human breast cancer cells (MCF-7). Nature of the data set: Colony formation assay, cancer vs normal breast cells. To be noted: MCF-7, 4 h treatment. Format: cell-based. From the text: After 10-20 days, cells were fixed and stained with modified Wright-Giemsa stain.
In data set [5] the test system is HT-29 human colon cancer cells. Briefly: Human colon cancer xenograft model. Format: in vivo, mice. How it is done:
The animals were randomized into three groups. […] Mean tumor volume was then analyzed.
Background: Xenograft models place foreign cells or tissue in a host animal.

Data set [6] can be described thus: Binding to human plasma proteins by equilibrium dialysis. In kind it is in vitro ADME. The settings on record: human, pooled human plasma; 2-25 μM, 37° C.; read-out: protein binding (converted). How it is done:
(§1) The plasma aliquots were incubated at 37° C. for 1 h, and then were dialyzed against PBS buffer at 37° C. for 4 h using Dianorm Equilibrium Dialysers.
In general terms: In equilibrium dialysis free small molecules cross a membrane that holds back macromolecules.

The next data set concerns human plasma proteins. The data set is described as above. In kind it is in vitro ADME. To be noted: 2-25 μM, 37° C. Here is the method:
as §1

A further data set deals with 60 cancer cell lines. Nature of the data set: NCI in vitro screen of 60 cancer cell lines, sulforhodamine B assay. In kind it is cell-based. To be noted: Homo sapiens, 60 cell, read-out: LC50 (log10 molar concentration causing 50% lethality), mean across all cells (converted). Here is the method: The NCI screen includes cell lines isolated from leukemia, non-small cell lung cancer (NSCLC), colon, […] (CNS), melanoma, ovarian, renal, prostate and breast cancer tissues.
The NCI assays were performed under standardized conditions and use the sulforhodamine B assay as the endpoint. The NCI set of 60 lines included nine colon cancer cell lines (COLO 205, DLD-1, HCC-2998, HCT-116, HCT-15, HT29, KM12, KM20L2, and SW-620).
The NCI assays were performed under standardized conditions and use the sulforhodamine B assay as the endpoint. The NCI set of 60 lines included twelve non-small cell lung cancer cell lines (A549, EKVX, HOP-18, HOP-19, HOP-62, HOP-92, NCI-H226, NCI-H23, NCI-H322M, NCI-H460, NCI-H522, and LXFL 529), and three small cell lung cancer cell lines (DMS 114, DMS 273, AND SHP-77).

“And” between values parts separate entries of the source, which are not always exact repeats. Equal entries are not always repeated. Where two headings read alike, the source gives them in different places.

Take `CC1(C)CCC2=C(O1)c1ccccc1C(=O)C2=O` [β-lapachone, 3,4-dihydro-2,2-dimethyl-2H-naphtho [1,2-b]pyran-5,6-dione]: the CC50 in data set [1] (PaCa-2, read-out: LC50, PaCa-2 Clone A surviving >LC99) was found to be 2590 nM; in data set [1] (PaCa-2, read-out: LC50, PaCa-2 Clone B surviving >LC99), 2720 nM; in [1] (PaCa-2, read-out: LC50, PaCa-2 WT) it was 2690 nM; in the data set on SK-MEL-28, 2630 nM; with MCF-7, 1450 nM; in the data set on A549 lung cancer cells, 1500 nM. Further, the figures for the CC50 in the data set on CAOV-3 and in the data set with 60 cancer cell lines were 1440 nM and 8510 nM, respectively. Moreover, the “lowest concentration tested, at which E2F-1 protein is induced” value with E2F-1 came to 0.5 µM. For the same compound, in [2], the “plasma levels (preliminary toxicokinetic results)” value is recorded as “significantly above the values predicted”. In addition, the tolerability result in [2] (iv, 5 mg/kg) is on record as “well-tolerated”. Besides, the total bilirubin levels in [3] (45 mg/kg dose, predose 0.38 and 0.26) is 0.66 mg/dL and 0.87 mg/dL. Also, in data set [3] (11-day study, declined from 14.9 and 13.5), the “hemoglobin at end of study” value is 9.1 g/dL and 9.7 g/dL. Besides, the “concentrations giving essentially complete elimination of colonies” value in data set [4] was at least 24 µM. Further, the “reduction of mean tumor volume” value in data set [5] (60 mg/kg IP every three days, 10 treatments) is on record as “approximately 75%”. Besides, in data set [5] (mouse, in vivo), the toxicity result was “No sign of significant toxicity”. Also, the fraction unbound at 4 h in [6] was 0.07. For the same compound, the “amount of free compound in human plasma” value in the data set on human plasma proteins was “approximately 7%”.

The values above are taken from US20050187288A1, “Beta-lapachone and methods of treating cancer” (priority 2004, published 2005).
